Results from patent US4386090A, “Nitrogen containing 2,3-dihydro naphthalenes, compositions and use” (Delalande S.A., priority 1980, dated 1983).

Experiments:
acute toxicity (LD 50) = details: in vivo, ip
Description: To illustrate the invention, there are shown in table IV below, the results obtained in these two tests and the acute toxicity (LD 50) of some compounds of formula (I).

mice [1] = test: analgesic activity, phenylbenzoquinone test (E. SIEGMUND); type: in vivo; details: Mus musculus, ip, read-out: ED 50 analgesic property
Description: Soc. Exp. Biol. and Med. 95, 729, (1957).

mice [2] = test: antidepressive activity, antagonism to ptosis after intravenous injection of reserpine; type: in vivo; details: Mus musculus, ip, 1 h, i.p., ptosis observed an hour after i.v. reserpine 2 mg/kg, read-out: ED 50 antidepressive property
Description: GOURET and J. THOMAS in J. Pharmacol. (Paris) (1973), 4, 401.

SMILES	LD50 (acute toxicity (LD 50)) [mg/kg]	ED50 (mice [1]) [mg/kg]	ED50 (mice [2]) [mg/kg]
COc1ccc2c(c1)C(c1ccccc1)=NC(CN(C)C)C2 (stereo not shown) [compound 13]	65	3	–
Cc1ccc2c(c1)C(c1ccccc1)=NC(CN1CCN(C)CC1)C2 (stereo not shown) [compound 99]	130	30	–
CN(C)CCC1Cc2ccccc2C(c2ccccn2)=N1 (stereo not shown) [compound 86]	94	10	4
CN(C)CC1Cc2ccccc2C(c2ccccc2F)=N1 (stereo not shown) [Code Number 8]	35	2.3	1.1
CN(C)CC1Cc2ccc(Cl)cc2C(c2ccccc2)=N1 (stereo not shown) [Code Number 11]	37	3	0.8
Cc1ccccc1C1=NC(CCN(C)C)Cc2ccccc21 (stereo not shown) [compound 31]	50	5.6	1.8
CN(C)CC1COc2ccccc2C(c2cccc(F)c2)=N1 (stereo not shown) [compound 87]	100	–	30
CN1CCN(CC2Cc3c(Cl)cccc3C(c3ccccc3)=N2)CC1 (stereo not shown) [compound 94]	140	22	–
CN(C)CCC1C=C(c2ccccc2F)c2ccccc2C1 (stereo not shown) [compound 101]	93	4.3	0.4
COc1cc2c(cc1OC)C(c1ccccc1)=NC(CN(C)C)C2 (stereo not shown) [compound 14]	135	15	–
CN(C)CCCC1Cc2ccccc2C(c2ccccc2F)=N1 (stereo not shown) [compound 39]	100	1.9	0.7
CN(C)CCC1Cc2ccccc2C(c2cccnc2)=N1 (stereo not shown) [compound 108]	90	7.6	12
CN(C)CCC1Cc2ccccc2C(c2ccccc2)=N1 (stereo not shown) [compound 17]	65	6	1.5
CN(C)CC1COc2ccccc2C(c2cccc(Cl)c2)=N1 (stereo not shown) [compound 43]	65	10	3
CCN(CC)CC1Cc2ccc(C)cc2C(c2ccccc2)=N1 (stereo not shown) [compound 95]	45	10	–
CN(C)CCC1Cc2ccccc2C(c2ccccc2Br)=N1 (stereo not shown) [compound 36]	77	–	2.4
CN(C)CC1COc2ccccc2C(c2ccc(Cl)cc2)=N1 (stereo not shown) [compound 44]	130	9.8	10
Cc1cccc(C2=NC(CCN(C)C)Cc3ccccc32)c1 (stereo not shown) [compound 32]	67	6.6	6.6
CN(C)CCCC1Cc2ccccc2C(c2ccccc2)=N1 (stereo not shown) [compound 38]	85	–	3.4
CNCCC1Cc2ccccc2C(c2ccccc2)=N1 (stereo not shown) [compound 16]	65	10	8.2
CN(C)CC1COc2ccccc2C(c2ccccc2)=N1 (stereo not shown) [compound 40]	80	3	–
Cc1ccc2c(c1)C(c1ccccc1)=NC(CN(C)C)C2 (stereo not shown) [compound 12]	50	5	15
CN(C)CCC1Cc2ccccc2C(C2CCCCC2)=N1 (stereo not shown) [compound 37]	82	10	10
CN(C)CCC1Cc2ccccc2C(c2cccc(F)c2)=N1 (stereo not shown) [compound 23]	55	2	2
CN(C)CC1Cc2ccc(Cl)cc2C(c2ccccc2F)=N1 (stereo not shown) [Code Number 9]	52	3	4.3
CN(C)CCC1Cc2ccccc2C(c2cccc(C(F)(F)F)c2)=N1 (stereo not shown) [compound 104]	62	4.3	–
CN(C)CC1Cc2ccccc2C(c2ccccc2)=N1 (stereo not shown) [compound 6]	41	5	3.5
Cc1ccc2c(c1)C(c1ccccc1)=NC(CN1CCOCC1)C2 (stereo not shown) [compound 98]	125	30	–
